For orientation: IC50 means the midpoint of a concentration-inhibition curve.

Some results are limits rather than exact numbers.

Test [1] addresses T1, B. subtilis RNase P (Bacillus subtilis, UniProt P25814).
T1 construct: made in house
Nature of the test: B. subtilis RNase P activity assay (FP, real-time). Format: biochemical. As to the method:
(§1) Figure 4 Gambogic acid and juglone inhibit A. thaliana PRORP1 (green), human MRPP1/2/3 (red), and B. subtilis RNase P (blue). Compounds gambogic acid (A) and juglone (B) were incubated with enzyme at double the reaction concentration for 30 min prior to the addition of an equal volume of substrate to initiate the reaction. PRORP1 reactions (shown in green) were performed with 0.3 nM PRORP1 and 800 nM pre-tRNA containing 40 nM Fl-pre-tRNA at 25 °C in 30 mM MOPS pH 7.8, 5 mM MgCl2, 100 mM NaCl, 1 mM TCEP, 500 nM (12 μg/ml) yeast tRNA, 5 mM spermidine, 6.65 μg/ml BSA, and 0.01% NP-40. MRPP1/2/3 reactions (shown in red) were performed using 50 nM MRPP3, 500 nM MRPP1/2, 500 nM pre-tRNA containing 40 nM Fl-pre-tRNA at 37 °C in 50 mM MOPS (pH 7.8), 1 mM TCEP, 4.5 mM MgCl2, and 100 mM NaCl. B. subtilis RNase P reactions (shown in blue) were performed using 20 nM RNase P and 500 nM pre-tRNA containing 40 nM Fl-pre-tRNA at 37 °C in 50 mM Tris, pH 7.2, 5 mM MgCl2, 100 mM KCl, 500 nM (12 μg/ml) yeast tRNA, 20 mM dithiothreitol (DTT), 10 mM spermidine, and 0.01% NP-40. Equation 1 was fit to each dataset.
The inhibition of B. subtilis RNase P activity by gambogic acid and juglone was measured using a previously developed FP assay in real-time.^25 Reactions were performed under multiple turnover conditions using 20 nM RNase P and 500 nM Fl-pre-tRNA^Asp in 50 mM Tris (pH 7.2), 5 mM MgCl2, 100 mM KCl, 500 nM (12 μg/ml) yeast tRNA^mix, 20 mM dithiothreitol, 10 mM spermidine, and 0.01% NP-40 at 37 °C.

Test [2] deals with T2, human MRPP1/2/3 (Homo sapiens, UniProt O15091).
T2 construct: N-terminal truncation (residues 46–583, Δ45MRPP3); His6 (N, cleaved yes); made in house; host or cells: Rosetta (DE3) / Rosetta2 (DE3) E. coli
T2 sequence (O15091 46-583): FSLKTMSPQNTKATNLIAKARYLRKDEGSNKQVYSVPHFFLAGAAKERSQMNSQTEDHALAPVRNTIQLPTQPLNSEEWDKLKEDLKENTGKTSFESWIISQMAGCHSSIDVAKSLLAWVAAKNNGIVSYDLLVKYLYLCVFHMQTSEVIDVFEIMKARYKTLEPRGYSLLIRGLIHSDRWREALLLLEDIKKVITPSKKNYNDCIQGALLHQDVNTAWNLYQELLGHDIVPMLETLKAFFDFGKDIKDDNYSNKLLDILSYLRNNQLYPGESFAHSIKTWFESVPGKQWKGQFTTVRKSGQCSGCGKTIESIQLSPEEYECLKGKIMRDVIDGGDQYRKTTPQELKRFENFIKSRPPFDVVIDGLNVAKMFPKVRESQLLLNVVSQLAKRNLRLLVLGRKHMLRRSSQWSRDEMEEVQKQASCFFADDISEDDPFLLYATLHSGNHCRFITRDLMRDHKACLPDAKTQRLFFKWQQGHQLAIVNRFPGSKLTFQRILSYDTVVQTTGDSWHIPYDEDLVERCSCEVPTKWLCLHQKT
Nature of the test: Human mitochondrial RNase P (MRPP1/2/3) activity assay. Format: biochemical. The settings on record: 30 min preincubation; 50 nM MRPP3, 500 nM MRPP1/2, 500 nM pre-tRNA, 37 °C; apparent IC50 for juglone. The procedure:
as §1, with “B. subtilis RNase P reactions (shown in blue) were performed using 20 nM RNase P and 500 nM pre-tRNA containing 40 nM Fl-pre-tRNA at 37 °C in 50 mM Tris, pH 7.2, 5 mM MgCl2, 100 mM KCl, 500 nM (12 μg/ml) yeast tRNA, 20 mM dithiothreitol (DTT), 10 mM spermidine, and 0.01% NP-40. Equation 1 was fit to each dataset.” left out
The inhibition of human MRPP1/2/3 by gambogic acid and juglone was evaluated via dose–response using a quenched assay. Human MRPP1/2/3 activity was measured as a function of gambogic acid and juglone concentration using 50 nM MRPP3, 500 nM MRPP1/2, 500 nM pre-tRNA containing 40 nM Fl-pre-tRNA in 50 mM MOPS (pH 7.8), 4.5 mM MgCl2, 100 mM NaCl, and 1 mM TCEP (pH 7.5). […] Samples were separated by 20% Urea PAGE (Ultra Pure SequaGel), fluorescence signal was quantified using ImageJ, and the data were analyzed using Prism. […]

T1 sequence (P25814 whole entry): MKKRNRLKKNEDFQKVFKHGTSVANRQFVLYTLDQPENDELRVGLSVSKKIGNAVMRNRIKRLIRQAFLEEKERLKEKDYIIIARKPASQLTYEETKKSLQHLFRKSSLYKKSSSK

As to `CC(C)=CCC[C@]1(C)C=Cc2c(O)c3c(c(CC=C(C)C)c2O1)O[C@]12C(=C[C@@H]4C[C@H]1C(C)(C)O[C@@]2(C/C=C(/C)C(=O)O)C4=O)C3=O` [gambogic acid], the IC50 amounted to 50 ± 2 µM in test [1] and 0.26 ± 0.06 µM in test [2].

As for `O=C1C=CC(=O)c2c(O)cccc21` [juglone, 5-hydroxy-1,4-naphthalenedione], the results for the half-maximal inhibitory concentration (IC50) in test [1] and in test [2] were more than 500 µM and 1.8 ± 0.04 µM, respectively.

(Values after paper PMC9731865, “Gambogic acid and juglone inhibit RNase P through distinct mechanisms” (The Journal of Biological Chemistry, 2022).)
